Experimental data: patent US7067261B2 (priority 2001, dated 2006)

Assays:
JAK2 = format: cell-based
[1] = target: complex formation between Aβ(1–42) and α7-nAChR (Rattus norvegicus, UniProt Q05941); format: cell-based
PI-3 kinase = format: cell-based, rat
caspase 3 = format: cell-based, rat
Akt = format: cell-based, rat
α4β2 = α4β2 (Homo sapiens, UniProt P17787+P43681); format: cell-based
α3β2 = α3β2 (Homo sapiens, UniProt P17787+P32297); format: cell-based
ganglionic subtype α3β4 = ganglionic subtype α3β4 (Homo sapiens, UniProt P30926+P32297); format: cell-based
α7 = α7 (Homo sapiens, UniProt P36544); assay: biochemical; format: binding
muscle subtype α1β1γδ = muscle subtype α1β1γδ (Homo sapiens, UniProt P02708+P07510+Q07001); format: cell-based
α7 nAChR = α7 nAChR (Homo sapiens, UniProt P36544); format: cell-based
[2] = test system: Reserpine-Induced Dopamine Depletion—Mice; conditions: mouse, in vivo; cited from earlier work
MPTP effects, Mice = conditions: mouse, in vivo; cited from earlier work
PC12 cells = format: cell-based, rat
[3] = test system: methamphetamine toxicity in mice; conditions: mouse, in vivo; cited from earlier work
[4] = test system: 6-OHDA (Partial Lesion)—Rats; conditions: rat, in vivo, sc, 1 mg/kg; cited from earlier work
[5] = target: JAK2 complex formation with the α7 receptor (Rattus norvegicus, UniProt Q05941)
[6] = test system: poly-(ADP-ribose)polymerase (PARP); format: cell-based, rat

Chain of complex formation between Aβ(1–42) and α7-nAChR (Q05941 23-502, one chain of several): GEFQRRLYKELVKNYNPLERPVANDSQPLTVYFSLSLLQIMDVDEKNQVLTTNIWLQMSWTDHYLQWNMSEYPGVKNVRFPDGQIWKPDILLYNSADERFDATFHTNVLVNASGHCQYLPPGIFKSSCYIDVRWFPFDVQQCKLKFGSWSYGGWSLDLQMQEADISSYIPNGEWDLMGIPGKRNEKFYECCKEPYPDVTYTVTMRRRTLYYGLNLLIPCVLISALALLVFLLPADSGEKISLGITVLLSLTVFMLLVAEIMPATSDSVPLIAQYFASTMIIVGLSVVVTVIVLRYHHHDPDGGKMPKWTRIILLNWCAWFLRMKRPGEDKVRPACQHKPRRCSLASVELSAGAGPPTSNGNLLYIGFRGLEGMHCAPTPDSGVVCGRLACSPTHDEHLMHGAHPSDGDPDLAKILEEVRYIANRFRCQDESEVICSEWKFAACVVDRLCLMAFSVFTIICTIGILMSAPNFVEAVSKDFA
Chain of ganglionic subtype α3β4 (P32297 32-505): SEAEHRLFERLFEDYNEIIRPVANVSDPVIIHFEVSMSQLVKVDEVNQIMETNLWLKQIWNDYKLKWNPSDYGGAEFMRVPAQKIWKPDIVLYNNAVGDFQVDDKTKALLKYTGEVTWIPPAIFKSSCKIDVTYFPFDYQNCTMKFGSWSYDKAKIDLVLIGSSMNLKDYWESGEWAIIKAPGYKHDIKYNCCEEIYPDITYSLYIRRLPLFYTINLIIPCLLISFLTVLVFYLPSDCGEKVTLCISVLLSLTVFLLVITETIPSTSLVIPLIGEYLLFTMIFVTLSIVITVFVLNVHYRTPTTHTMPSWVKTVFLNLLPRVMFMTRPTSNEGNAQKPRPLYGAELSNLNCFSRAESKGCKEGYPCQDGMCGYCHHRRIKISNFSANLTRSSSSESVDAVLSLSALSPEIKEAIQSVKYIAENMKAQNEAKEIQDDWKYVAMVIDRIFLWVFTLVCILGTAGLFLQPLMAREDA
Chain of ganglionic subtype α3β4 (P30926 22-498): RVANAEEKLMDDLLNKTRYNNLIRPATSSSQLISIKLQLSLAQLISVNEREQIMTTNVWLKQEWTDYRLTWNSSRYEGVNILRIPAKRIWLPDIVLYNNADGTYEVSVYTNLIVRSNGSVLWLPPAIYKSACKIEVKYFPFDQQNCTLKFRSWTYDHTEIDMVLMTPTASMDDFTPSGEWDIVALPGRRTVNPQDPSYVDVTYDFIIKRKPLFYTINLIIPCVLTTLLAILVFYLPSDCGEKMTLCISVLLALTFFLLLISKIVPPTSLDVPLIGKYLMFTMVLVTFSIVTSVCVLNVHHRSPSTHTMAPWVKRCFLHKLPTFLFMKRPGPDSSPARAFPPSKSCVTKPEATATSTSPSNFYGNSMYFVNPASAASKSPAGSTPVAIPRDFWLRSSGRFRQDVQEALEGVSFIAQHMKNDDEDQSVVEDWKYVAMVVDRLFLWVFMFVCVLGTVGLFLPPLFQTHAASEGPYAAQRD
Chain of α3β2 (P32297 32-505): as the sequence (P32297 32-505) above
Chain of α3β2 (P17787 26-502): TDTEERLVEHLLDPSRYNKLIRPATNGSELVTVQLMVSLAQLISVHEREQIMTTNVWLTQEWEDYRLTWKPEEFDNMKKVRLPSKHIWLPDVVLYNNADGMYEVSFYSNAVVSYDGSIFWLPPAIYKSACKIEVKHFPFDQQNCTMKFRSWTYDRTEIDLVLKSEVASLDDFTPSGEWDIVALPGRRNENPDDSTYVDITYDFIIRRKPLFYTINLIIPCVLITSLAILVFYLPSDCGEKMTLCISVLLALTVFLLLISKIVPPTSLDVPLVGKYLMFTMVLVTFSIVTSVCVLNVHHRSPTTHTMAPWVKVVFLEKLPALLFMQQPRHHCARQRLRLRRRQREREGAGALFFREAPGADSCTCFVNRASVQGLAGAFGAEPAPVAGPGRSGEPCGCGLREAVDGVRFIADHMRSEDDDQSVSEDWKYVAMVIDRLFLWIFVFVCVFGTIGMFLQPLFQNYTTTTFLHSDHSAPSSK
Chain of muscle subtype α1β1γδ (P07510 23-517): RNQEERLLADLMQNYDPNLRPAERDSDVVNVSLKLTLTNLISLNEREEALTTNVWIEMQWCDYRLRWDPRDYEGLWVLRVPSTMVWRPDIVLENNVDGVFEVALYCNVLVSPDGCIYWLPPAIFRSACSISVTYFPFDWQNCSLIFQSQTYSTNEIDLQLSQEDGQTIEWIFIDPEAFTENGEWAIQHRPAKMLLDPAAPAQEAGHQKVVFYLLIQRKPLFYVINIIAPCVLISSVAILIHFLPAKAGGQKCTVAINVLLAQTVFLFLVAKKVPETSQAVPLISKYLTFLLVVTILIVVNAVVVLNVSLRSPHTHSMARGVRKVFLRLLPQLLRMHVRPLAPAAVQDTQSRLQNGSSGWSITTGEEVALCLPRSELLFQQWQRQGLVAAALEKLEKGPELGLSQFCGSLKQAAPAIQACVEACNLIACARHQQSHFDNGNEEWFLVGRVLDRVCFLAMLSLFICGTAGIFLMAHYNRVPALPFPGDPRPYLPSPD
Chain of muscle subtype α1β1γδ (Q07001 22-517): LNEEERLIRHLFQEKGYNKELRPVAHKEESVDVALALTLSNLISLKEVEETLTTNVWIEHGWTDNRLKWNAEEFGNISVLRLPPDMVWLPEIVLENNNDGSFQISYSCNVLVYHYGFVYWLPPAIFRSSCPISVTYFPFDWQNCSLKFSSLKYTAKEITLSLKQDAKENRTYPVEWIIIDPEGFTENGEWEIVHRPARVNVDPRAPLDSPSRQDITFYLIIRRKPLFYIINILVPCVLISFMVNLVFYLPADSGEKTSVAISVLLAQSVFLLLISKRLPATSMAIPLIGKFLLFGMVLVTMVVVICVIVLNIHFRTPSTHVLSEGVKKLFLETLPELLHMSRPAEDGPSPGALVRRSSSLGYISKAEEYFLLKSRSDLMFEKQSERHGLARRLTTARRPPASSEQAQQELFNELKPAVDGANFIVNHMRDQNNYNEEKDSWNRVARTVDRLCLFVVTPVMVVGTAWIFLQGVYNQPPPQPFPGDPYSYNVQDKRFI
Chain of muscle subtype α1β1γδ (P02708 21-457): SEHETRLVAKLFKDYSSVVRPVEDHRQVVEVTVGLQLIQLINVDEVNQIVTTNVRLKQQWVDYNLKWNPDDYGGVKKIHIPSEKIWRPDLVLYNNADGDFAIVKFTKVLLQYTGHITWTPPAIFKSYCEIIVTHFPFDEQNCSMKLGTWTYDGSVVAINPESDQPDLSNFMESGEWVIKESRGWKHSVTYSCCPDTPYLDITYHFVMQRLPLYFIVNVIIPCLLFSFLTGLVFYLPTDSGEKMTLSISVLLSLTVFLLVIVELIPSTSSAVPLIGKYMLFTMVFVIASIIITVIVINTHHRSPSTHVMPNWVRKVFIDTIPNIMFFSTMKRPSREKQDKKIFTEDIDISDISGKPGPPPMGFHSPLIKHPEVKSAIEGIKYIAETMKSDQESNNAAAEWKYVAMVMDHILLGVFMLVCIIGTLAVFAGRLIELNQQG
Chain of muscle subtype α1β1γδ (P11230 24-501, further chain): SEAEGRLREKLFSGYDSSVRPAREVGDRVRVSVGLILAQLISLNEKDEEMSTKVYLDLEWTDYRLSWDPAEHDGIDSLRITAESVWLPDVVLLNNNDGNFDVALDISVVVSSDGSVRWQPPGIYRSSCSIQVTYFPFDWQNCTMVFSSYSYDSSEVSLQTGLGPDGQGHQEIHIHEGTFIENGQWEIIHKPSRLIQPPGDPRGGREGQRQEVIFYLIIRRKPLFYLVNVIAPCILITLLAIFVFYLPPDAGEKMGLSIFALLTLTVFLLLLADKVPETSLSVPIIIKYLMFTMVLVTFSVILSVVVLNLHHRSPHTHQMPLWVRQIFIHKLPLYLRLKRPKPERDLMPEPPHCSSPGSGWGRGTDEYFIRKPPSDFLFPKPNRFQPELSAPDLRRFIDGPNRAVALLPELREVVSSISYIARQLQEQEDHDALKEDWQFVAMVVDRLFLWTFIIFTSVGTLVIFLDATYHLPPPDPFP
Chain of α4β2 (P43681 29-627): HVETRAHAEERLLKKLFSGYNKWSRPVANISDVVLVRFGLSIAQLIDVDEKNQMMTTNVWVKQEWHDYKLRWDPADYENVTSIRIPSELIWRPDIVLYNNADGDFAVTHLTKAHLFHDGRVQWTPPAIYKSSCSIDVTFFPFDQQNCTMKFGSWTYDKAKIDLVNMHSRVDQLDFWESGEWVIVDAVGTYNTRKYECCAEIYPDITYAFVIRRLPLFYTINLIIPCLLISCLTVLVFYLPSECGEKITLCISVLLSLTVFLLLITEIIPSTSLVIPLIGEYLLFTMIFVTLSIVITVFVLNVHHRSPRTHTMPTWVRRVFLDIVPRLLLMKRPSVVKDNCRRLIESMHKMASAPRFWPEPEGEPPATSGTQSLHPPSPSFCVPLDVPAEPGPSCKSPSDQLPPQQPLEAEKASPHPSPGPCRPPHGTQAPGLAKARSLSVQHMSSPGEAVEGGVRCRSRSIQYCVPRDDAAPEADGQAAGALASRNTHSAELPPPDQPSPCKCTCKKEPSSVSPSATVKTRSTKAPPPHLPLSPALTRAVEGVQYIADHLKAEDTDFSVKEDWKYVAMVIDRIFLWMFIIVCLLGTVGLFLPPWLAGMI
Chain of α4β2 (P17787 26-502): as the sequence (P17787 26-502) above
Chain of α7 (P36544 23-502): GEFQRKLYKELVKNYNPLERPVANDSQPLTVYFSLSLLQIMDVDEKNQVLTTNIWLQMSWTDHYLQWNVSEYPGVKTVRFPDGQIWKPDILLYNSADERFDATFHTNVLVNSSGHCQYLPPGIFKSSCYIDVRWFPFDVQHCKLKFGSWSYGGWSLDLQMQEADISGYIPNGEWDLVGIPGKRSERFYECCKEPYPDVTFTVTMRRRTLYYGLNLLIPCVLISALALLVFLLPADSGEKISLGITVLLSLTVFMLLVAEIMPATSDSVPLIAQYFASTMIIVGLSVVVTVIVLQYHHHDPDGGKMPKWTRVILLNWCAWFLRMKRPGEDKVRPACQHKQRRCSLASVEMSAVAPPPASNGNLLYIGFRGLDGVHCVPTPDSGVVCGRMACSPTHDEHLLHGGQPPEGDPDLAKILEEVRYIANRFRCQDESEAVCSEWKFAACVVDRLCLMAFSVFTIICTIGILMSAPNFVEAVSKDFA

In the case of `N#C/C(=C/c1ccc(O)c(O)c1)C(=O)NCc1ccccc1` [AG-490], the “effect on TC-1698-induced activation of JAK2” value (JAK2) is reported as “suppression of activation”, the “effect on basal and nicotine-stimulated JAK2 tyrosine phosphorylation” value (JAK2) is reported as “inhibits” and the “effect on co-immunoprecipitation (complex formation) of Aβ(1–42) and α7-nAChR” value [1] is reported as “prevented”. For the same compound, the “effect on TC-1698-induced activation of PI-3 Kinase” value (PI-3 kinase) was “suppression of activation”, the “effect on nicotine-induced tyrosine phosphorylation of PI-3K” value (PI-3 kinase) was “inhibits” and the “effect on nicotine inhibition of Aβ(1–42)-induced caspase 3 activation” value (caspase 3) was “prevented”. For the same compound, the “effect on TC-1698-induced activation of Akt” value (Akt) was “suppression of activation” and the “effect on nicotine-induced serine phosphorylation of Akt” value (Akt) was “inhibits”.

In the case of `c1cncc(C2CCC3CCN2CC3)c1` (stereo not shown) [TC-1698, 2-Pyridin-3-yl-1-aza-bicyclo[3.2.2]nonane], the “activation of neuronal subtype α4β2” value (α4β2) is reported as “does not activate”, the “phosphorylation of Jak-2” value (JAK2) is reported as “induces phosphorylation of Jak-2” and the “activation of PI-3 Kinase” value (PI-3 kinase) is reported as “activation”. The “activation of neuronal subtype α3β2” value (α3β2) was “does not activate”, the “activation of ganglionic subtype α3β4” value (ganglionic subtype α3β4) was “does not activate” and the Ki (α7) was 0.8 nM. For the same compound, the “activation of muscle subtype α1β1γδ” value (muscle subtype α1β1γδ) was “does not activate”, the “potency in activating α7 nAChR relative to acetylcholine” value (α7 nAChR) was 50 fold and the “activation of Akt” value (Akt) was “activation”.

For `C[N+](C)(C)CCCCCC[N+](C)(C)C` [hexamethonium], the “effect on NIC blockade of reserpine-induced dopamine depletion” value [2] is listed as “not”.

For `CNC1(C)C2CCC(C2)C1(C)C` (stereo not shown) [mecamylamine], the “effect on NIC blockade of reserpine-induced dopamine depletion” value [2] is listed as “blocked”.

For `CN1CCCC1c1cccnc1` (stereo not shown) [nicotine], the reserpine-induced dopamine depletion [2] is given as “blocked”, the “time to JAK2 tyrosine phosphorylation” value (JAK2) is given as 5 to 10 min and the “striatal MPP+ levels induced by MPTP” value (MPTP effects, Mice) is given as “reduces”. For the same compound, the “effect on co-immunoprecipitation (complex formation) of Aβ(1–42) and α7-nAChR” value [1] was “blocked”, the “effect on Ang II-induced apoptosis (cell number)” value (PC12 cells; PC12 cells, Ang II 100 nM, 8 hours) was “not affected” and the “effect on Aβ(1–42)-induced cell death when co-incubated with AG-490” value (PC12 cells; PC12 cells, Aβ(1–42) 100 nM, 8 hours) was “no effect”. The “effect on cell death induced by Aβ(1–42)” value (PC12 cells; PC12 cells, Aβ(1–42) 100 nM, 8 hours, P<0.01) was “significantly reduced”, the “methamphetamine toxicity (brain levels)” value [3] was “prevents” and the “effect on Aβ(1–42)-induced activation of caspase 3” value (caspase 3; PC12 cells, nicotine 10 μM, Aβ(1–42) 100 nM, P<0.01) was “blocked”. The “dopaminergic neurotoxicity (loss of striatal dopamine) induced by 6-OHDA” value [4] was “attenuates” and the “time to association of JAK2 with the α7 receptor” value [5] was no more than 5 min.

In the case of “Ang II (DRVYIHPF; Angiotensin-2; UniProt P01019 25-32, looked up)”, the “effect of preincubation on nicotine-induced tyrosine phosphorylation of JAK2” value (JAK2) is reported as “blocks”, the “PARP cleavage / induction” value [6] is reported as “nicotine-insensitive PARP induction” and the PC12 cell number (PC12 cells) is reported as “significantly reduced”. The “effect on nicotine-induced neuroprotection (cell viability)” value (PC12 cells) was “complete reversal”.

For Aβ(1–42), the “PARP cleavage / induction” value [6] was “cleaved”, the PC12 cell number (PC12 cells) was “significant decrease” and the “caspase 3 activity” value (caspase 3) was “significant increase”.
